Patent publication US9873724B2, “Pro-angiogenic peptides and peptide conjugates” (Yissum Research Development Company of the Hebrew …, priority 2013, dated 2018)
Several values for one entry are separate records, joined by “and”; a condition that tells them apart may be missing. Equal entries are not always repeated. Square brackets hold non-standard residues; d marks the D form. Ends that are not written are not given here. * marks the point of attachment. fluorescein = fluorescein moiety coupled to a lysine residue (K-Flu); Tyr(3,5-I2) = N[C@@H](Cc1cc(I)c(O)c(I)c1)C(=O)O; Phe(4-Br) = N[C@@H](Cc1ccc(Br)cc1)C(=O)O; hArg = N=C(N)NCCCC[C@H](N)C(=O)O; Myristoyl = CCCCCCCCCCCCCC(=O)*; Lauroyl = CCCCCCCCCCCC(=O)*; Decanoyl = CCCCCCCCCC(=O)*; Nle = CCCC[C@H](N)C(=O)O; Octanoyl = CCCCCCCC(=O)*; Hexanoyl = CCCCCC(=O)*

Key:
mouse aortic rings = test: Aortic ring assay ex-vivo (capillary sprouting from mouse aortic rings in collagen; repeated with VEGF); type: cell-based; set-up: Capillary length 10 μM (10 μM) / Capillary length 20 μM / Capillary length 10 μM: unit not given here; conditions: for Capillary length 10 μM (10 μM) / Capillary length 10 μM: peptide 10 μM; for Capillary length 10 μM (10 μM) / Capillary length 20 μM / Capillary length 10 μM: rings fixed after two weeks; for Capillary length 20 μM: peptide 20 μM; for Average capillary length / Fold vs vehicle: 10 μM peptide, alone or together with VEGF; for Fold vs vehicle: capillary length; for effect of peptide together with VEGF (in words): 10 μM peptide with VEGF; for capillary / vessel formation (in words): aortic ring assay, FIGS. 1A-1C and 2A-2C
Description: Thoracic aortas were dissected from 7- to 8-week-old male SABRA mice. The aortas were immediately transferred to Petri dishes containing BIO-MPM-1. The adventitia and small vessels around the aorta were carefully removed under a dissecting microscope, and transverse cuts of 0.75 mm were made. The resulting aortic rings were extensively rinsed and incubated overnight in BIO-MPM-1 containing penicillin-streptomycin. Subsequently, the rings were embedded in 50 μl collagen mix (7 parts collagen, 1 part 10× Eagle minimal essential medium, MEM, and 2 parts 0.15 M sodium bicarbonate) in 96-well plates (Nunc, Rochester, N.Y.). Solidification of the collagen solution was achieved by raising the pH to neutral and the temperature to 37° C. 150 μl BIO-MPM-1 containing penicillin-streptomycin and the tested factors or peptides) was added to the embedded rings, and the plates were incubated at 37° C. in a humidified 10% CO2 atmosphere. Medium containing factors and/or peptides was refreshed at days 4 and 8. After two weeks, the rings were fixed with 4% formaldehyde for 24 hours, followed by staining with crystal violet (0.02%) dissolved in ethanol and extensive washing to remove excessive stain. The effect of factors and peptides was examined in 4 wells (4 rings of mouse aortic rings) per assay. Micrographs of representative rings were taken using a digital camera (Nikon, Tokyo, Japan). Morphometric analysis of sprouting was performed manually using Image-Pro 4.5 software (Media Cybernetics, Silver Spring, Md.) according to Nissanov et al. (Lab Invest. 1995; 73:734-739). Nonstained rings were subjected to paraffin sections and hematoxylin and eosin (H&E) staining.
FIGS. 1A-1C represents aortic ring capillary length and FIGS. 2A-2C aortic ring capillary width. In the table: K-Flu is a Lysine residue coupled with a fluorescein moiety, 4BrPhe is 4-bromo-Phenylalanine, Dod is Dodecanoyl, Dec designates Decanoyl, Oct is Octanoyl, and Hex is Hexanoyl.
The aortic ring assay was repeated in the presence of 10 μM concentration of peptides AB-033 (SEQ ID NO: 13) and AB-034 (SEQ ID NO: 14) together with the pro-angiogenetic protein VEGF.

[1] = tested on: Mice/Balb/c, hind limb ischemia model; test: Mouse hind limb ischemia/angiogenesis model; type: in vivo; conditions: 20 mg/kg IP twice weekly
Description: The object of this study was to determine whether administration of the test items, peptides AB-017 (SEQ ID NO: 12) and 725-106 (positive control, SEQ ID NO: 2) can enhance angiogenesis, subsequently inducing clinical and motor function improvement in a hind limb ischemia model. The principle of the test is based on changes in perfusion rate, clinical signs and histological parameters (necrosis) following administration of the test compounds.
Each tested group included 4-7 mice per group. Intraperitoneal (i.p) injection is the preferred route of administration of the test items in this model and DMSO/PEG is used as vehicle to prepare the test item solution.
Tested peptides were dissolved in 100% DMSO. Thereafter Polyethylene glycol (PEG) 400 is added to the solution. Sterile water was used to dilute to a final concentration of 0.5% DMSO/10% PEG 400/H2O to result 2 mg/ml. The solution is prepared and divided into marked aliquots and stored at −70° C.
Species/Strain: Mice/Balb/c male˜8 weeks
Animals were housed under standard laboratory conditions, air conditioned and filtered (HEPA F6/6) with adequate fresh air supply (31 air changes/hour). Animals were kept in a climate controlled environment. Temperatures range is between 20-24° C. and RH is between 30-70% with 12 hours light and 12 hours dark cycle. Animals were housed in polyethylene cages (7/cage) measuring 35×30×15 cm, with stainless steel top grill facilitating pelleted food and drinking water in plastic bottle; bedding: steam sterilized clean paddy husk. Bedding material is changed along with the cage at least twice a week. Diet: Animals are fed ad libitum a commercial rodent diet (Teklad Certified Global 18% Protein Diet cat #: 106S8216). Animals have free access to drinking water obtained from the municipality supply. Surgical Procedure: Anesthesia: Isoflurane 1.5-3% in a mixture of O2/N2O, under spontaneous respiration. All four limbs of the animal were taped down in order to facilitate the animal for surgery. Both hind legs of the animals are shaved and disinfected. On the operated leg, the right leg in all animals, an incision was made from the inguinal area to the proximity of the knee. The femoral vein/artery/nerve were exposed. The artery is dissected free from the vein, nerve and surrounding fascia. Distal to its bifurcation with the profound femoral artery, using 6-0 silk suture the artery is ligated twice, and thereafter transected between these two points (see prox-A-group model appendix I). The surgical wound is closed with 6-0 silk and the mouse is returned to its cage. The left leg is untreated control in all animals. Exclusion criteria: Only mice, whose mean flux measurement post surgery is […] and ≦50% of the pre surgical measurement, are incorporated into the study. Mice whose mean flux measurement post surgery out of this range were excluded from the study.
[formula] Drug administration: All animals were dosed by IP administration at a dose volume of 10 ml/kg.
Tests and Evaluation: Body weight: Body weights were measured prior to surgery, prior to each dosing, and prior to necropsy. Blood flow measurement: Using a Laser Doppler apparatus (Perimed PeriScan PIM II System, Technical manual available at test facility) Blood flow was measured (operated leg & control leg) while the legs are in their natural resting position at the following time points: Before surgery (after shaving) & Post surgery (Day 0); Day 1; Day 8; Day 15; Day 22; and Day 29. Each time point for each mouse consists of three measurements. Blood flow was measured, additionally, in first 10 animals at Pre before shaving. […]

| Substance | Capillary length 10 μM (10 μM) (mouse aortic rings) | Capillary length 20 μM (mouse aortic rings) | Capillary length 10 μM (mouse aortic rings) | further results |
| --- | --- | --- | --- | --- |
| Myr-Gly-Arg-Pro-Tyr-NH2 (Myristoyl-GRPY-NH2; SMILES CCCCCCCCCCCCCC(=O)NCC(=O)N[C@@H](CCCNC(=N)N)C(=O)N1CCC[C@H]1C(=O)N[C@@H](Cc1ccc(O)cc1)C(N)=O) [AB-016] | 8,700 | 14,500 |  |  |
| AB-031: Table 2: Myr-Gly, Nle, Arg, Pro, 4BrPhe (Myristoyl-G[Nle]RP[Phe(4-Br)]) |  |  | 1,840 |  |
| 725-106: Previously disclosed EDG3 peptide, positive control; Table 2: Myr-Gly, Nle, Arg, Pro, Tyr, Asn, Ala, NH2 (Myristoyl-G[Nle]RPYNA-NH2; SMILES CCCCCCCCCCCCCC(=O)NCC(=O)N[C@@H](CCCC)C(=O)N[C@@H](CCCNC(=N)N)C(=O)N1CCC[C@H]1C(=O)N[C@@H](Cc1ccc(O)cc1)C(=O)N[C@@H](CC(N)=O)C(=O)N[C@@H](C)C(N)=O) [Peptide 725-106, reference compound] | 7,000 | 4,600 |  | Functional evaluation at day 15 (individual mouse) ([1]; function score 0 (flexing the toes) to 3 (dragging of foot), one value per mouse): 3.0; Hind limb ischemia evaluation at day 15, Average ([1]; group average of ischemic score): 2.4; Hind limb ischemia evaluation at day 15 (individual mouse) ([1]; ischemic score 0 (absence of necrosis) to 4 (total hind-limb loss), one value per mouse, listed as 106): 2.0 (2×) and 3.0 and 2.5 |
| VEGF |  |  |  | Average capillary length (mouse aortic rings): 3221; Fold vs vehicle (mouse aortic rings): 2.4 |
| AB-013: Table 2: Myr-Gly, Nle, Arg, Pro, Tyr, Asn, DAla, NH2 (Myristoyl-G[Nle]RPYN[dA]-NH2; SMILES CCCCCCCCCCCCCC(=O)NCC(=O)N[C@@H](CCCC)C(=O)N[C@@H](CCCNC(=N)N)C(=O)N1CCC[C@H]1C(=O)N[C@@H](Cc1ccc(O)cc1)C(=O)N[C@@H](CC(N)=O)C(=O)N[C@H](C)C(N)=O) | 8700 | 900 |  |  |
| AB-022: Table 2: Oct-Gly (Octanoyl), Nle, Arg, Pro, Tyr (Octanoyl-G[Nle]RPY) | 380 | 1,700 | 2,170 |  |
| Myr-Gly-Nle-hArg-Pro-Tyr-NH2 (Myristoyl-G[Nle][hArg]PY-NH2; SMILES CCCCCCCCCCCCCC(=O)NCC(=O)N[C@@H](CCCC)C(=O)N[C@@H](CCCCNC(=N)N)C(=O)N1CCC[C@H]1C(=O)N[C@@H](Cc1ccc(O)cc1)C(N)=O) [AB-034] | 9,570 | 10,780 | 9,700 | effect of peptide together with VEGF (in words) (mouse aortic rings): synergistic effect; Average capillary length (mouse aortic rings): 3062; capillary / vessel formation (in words) (mouse aortic rings): induce massive capillary formation; Fold vs vehicle (mouse aortic rings): 2.2 |
| AB-020: Table 2: Dod-Gly (Dodecanoyl), Nle, Arg, Pro, Tyr (Lauroyl-G[Nle]RPY) | 1,900 | 2,700 | 5,600 |  |
| AB-015: Table 2: Acetyl-Gly-, Arg, Pro, Tyr, NH2 (Ac-GRPY-NH2) | 1,000 | 1,700 |  |  |
| AB-011: Table 2: Myr-Gly, Nle, Arg, Pro, Tyr, Asn, Ala, K-Flu (lysine coupled with fluorescein), NH2 (Myristoyl-G[Nle]RPYNAK(fluorescein)-NH2) | 2500 | 5000 |  |  |
| AB-023: Table 2: Hex-Gly (Hexanoyl), Nle, Arg, Pro, Tyr (Hexanoyl-G[Nle]RPY) | 430 | 320 | 1,700 |  |
| AB-018: Table 2: Myr-Gly, Nle, Arg, Pro, Tyr, Asn, NH2 (Myristoyl-G[Nle]RPYN-NH2; SMILES CCCCCCCCCCCCCC(=O)NCC(=O)N[C@@H](CCCC)C(=O)N[C@@H](CCCNC(=N)N)C(=O)N1CCC[C@H]1C(=O)N[C@@H](Cc1ccc(O)cc1)C(=O)N[C@@H](CC(N)=O)C(N)=O) | 12,600 | 10,200 |  |  |
| AB-021: Table 2: Dec-Gly (Decanoyl), Nle, Arg, Pro, Tyr (Decanoyl-G[Nle]RPY) | 590 | 3,200 | 3,940 |  |
| Myr-Gly-Nle-Arg-Pro-35dITyr-NH2 (Myristoyl-G[Nle]RP[Tyr(3,5-I2)]-NH2; SMILES CCCCCCCCCCCCCC(=O)NCC(=O)N[C@@H](CCCC)C(=O)N[C@@H](CCCNC(=N)N)C(=O)N1CCC[C@H]1C(=O)N[C@@H](Cc1cc(I)c(O)c(I)c1)C(N)=O) [AB-033] | 3,570 | 3,800 |  | effect of peptide together with VEGF (in words) (mouse aortic rings): synergistic effect; Average capillary length (mouse aortic rings): 4941; capillary / vessel formation (in words) (mouse aortic rings): induce massive capillary formation; Fold vs vehicle (mouse aortic rings): 3.6 |
